Measurements: patent publication US12564600B2, “System for enhancing therapeutic compliance of the anti-cancer compound E7766” (Eisai R&D Management Co., Ltd., priority 2019, dated 2026)
Converted amounts (≈) assume the structure as drawn. “Also recorded” adds a separate entry of the source.

Assays:
[1] = Physicochemical properties and ECCS classification of Compound 1
[2] = Pharmacokinetics and excretion in bile duct-cannulated rat, single IV dose; assay type: in vivo, Sprague Dawley rats; conditions: IV 1 mg/kg, Mean SD
Description: (§1) Male bile duct-cannulated beagle dogs or Sprague Dawley rats (n=3) were given a single intravenous (IV) dose of Compound 1. Plasma, urine and bile samples were collected from the dogs, and blood, urine, bile and feces samples were collected from rats up to 48 hours post-dose. Blood samples were kept on wet ice after collection until centrifuged for separation of plasma. Urine samples were collected at intervals 0 to 4, 4 to 8, 8 to 24, and 24 to 48 hours post-dose into collection tubes on wet ice. Bile samples were collected at intervals 0 to 4, 4 to 8, 8 to 24, and 24 to 48 hours post-dose into collection tubes cooled via an ice pack. Feces samples for rats were collected over 0 to 24 hour interval. All samples were transferred into properly labeled tubes and stored at −70° C. until pending shipment to the bioanalytical facility. All samples were analyzed using LC-MS/MS and the pharmacokinetic parameters of Compound 1 were determined with Phoenix WinNonlin using non-compartmental analysis.
(§2) Data are shown as Mean SD. NC indicates Not Collected.

[3] = Pharmacokinetics and excretion in bile duct-cannulated dog, single IV dose; assay type: in vivo, beagle dogs; conditions: IV 0.075 mg/kg, up to 48 h, Mean SD
Description: as §1, §2

[4] = Pharmacokinetics in wild-type mice with or without rifampin co-dose; assay type: in vivo, wild-type FVB male mice
Description: (§3) Age-matched Oatp1a/1b cluster-knockout, OATP1B1- or OATP1B3-knockin mice humanized on the Oatp1a/1b-knockout background, and wild-type FVB male mice were purchased from Taconic Biosciences (Hudson, N.Y., USA). Mice were between 8 and 10 weeks of age (22-34 g) at the time of study. Compound 1 was administered at a dose of 0.5 mg/kg coadministered with either vehicle or rifampin (30 mg/kg). Blood and liver samples were collected at 0.083, 0.25, 0.5, 1, 1.5, 3, 6 hours. Plasma was isolated from blood samples by centrifugation. All samples were stored at −80° C. until bioanalysis.
(§4) Compound 1 was dosed via intravenous administration to WT, humanized, and KO mice. Blood, urine, and feces were collected from the animals over 6 hours. Blood spots were collected and expelled FTA™ DMPK-B DBS Card (GE Healthcare, Life Sciences, Whatman™) within the appropriate sample circle. Pharmacokinetics of Compound 1 in WT animals was also assessed after co-administration with rifampin. Liver samples were also collected from WT animals and frozen until analysis. All samples were analyzed using LC-MS/MS and the pharmacokinetics parameters of Compound 1 were determined with Phoenix WinNonlin using non-compartmental analysis.
(§5) FIG. 2A through 2C show an in vivo PK profile and elimination of Compound 1 with and without a co-dose of the Oatp/OATP inhibitor Rifampin in different mouse models.

[5] = test system: OATP1B1/1B3; experiment: Pharmacokinetics in humanized OATP1B1/1B3 mice with or without rifampin co-dose; assay type: in vivo; conditions: 0.5 mg/kg IV, rifampin 30 mg/kg
Description: as §3, §4, §5

[6] = biological target: T1, OATP1B1 (Homo sapiens, UniProt Q9Y6L6); experiment: Uptake in HEK293 cells overexpressing OATP1B1; assay type: in vitro ADME
T1 construct: expressed in transfected cells; host or cells: HEK293-FT
T1 sequence (Q9Y6L6 1-691): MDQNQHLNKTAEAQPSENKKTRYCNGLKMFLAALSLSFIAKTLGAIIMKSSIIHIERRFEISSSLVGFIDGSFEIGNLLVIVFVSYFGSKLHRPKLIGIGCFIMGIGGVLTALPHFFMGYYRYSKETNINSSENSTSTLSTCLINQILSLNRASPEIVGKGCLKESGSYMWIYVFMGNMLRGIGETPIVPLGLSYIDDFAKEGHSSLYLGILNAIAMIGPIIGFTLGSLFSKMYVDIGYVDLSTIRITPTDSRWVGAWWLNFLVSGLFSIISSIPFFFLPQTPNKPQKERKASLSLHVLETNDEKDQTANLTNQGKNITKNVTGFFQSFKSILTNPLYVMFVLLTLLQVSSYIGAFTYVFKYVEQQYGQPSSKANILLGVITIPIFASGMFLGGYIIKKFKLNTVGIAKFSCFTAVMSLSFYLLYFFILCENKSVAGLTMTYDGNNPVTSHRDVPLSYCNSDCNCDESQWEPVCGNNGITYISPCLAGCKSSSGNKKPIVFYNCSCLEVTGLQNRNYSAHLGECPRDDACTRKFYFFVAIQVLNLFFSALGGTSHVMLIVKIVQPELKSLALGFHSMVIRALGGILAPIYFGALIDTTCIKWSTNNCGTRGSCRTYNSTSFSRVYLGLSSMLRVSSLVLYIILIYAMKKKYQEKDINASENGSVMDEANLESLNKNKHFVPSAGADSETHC
Description: TransportoCells™ (Corning, N.Y., USA) expressing OATP2B1, NTCP, and HEK293-FT cells stably transfected with the vector containing OATP1B1 cDNA or OATP1B3 cDNA or empty vector were grown in a Dulbecoo's modified Eagle's medium fortified with 10% fetal calf serum and 2 mmol/L sodium butyrate (for NTCP only) in a humidified incubator at 37° C. and 5% CO2. Cells were harvested at 90% confluence and then seeded in poly-D-lysine-coated 24-well 24 h prior to transporter assay. Cells were washed twice and pre-incubated with 200 μL of pre-warmed Krebs-Henseleit buffer. After pre-incubation, cells were incubated with 3 or 10 μmol L-1 of Compound 1 in presence or absence of 100 μmol L-1 of inhibitors (Rifamycin SV for OATP2B1, Troglitazone for NTCP, Rifamycin for OATP1B1 and OATP1B3). The transport reaction was terminated by aspirating the buffer from the wells at designated time. After washing three times with 200 μL of ice-cold Krebs-Henseleit buffer, the cells were lysed and the resulting cellular lysates were analyzed by LC-MS/MS.
Concentration-dependent uptake of Compound 1 via OATP1B1 and OATP1B3 were conducted with a concentration range of 0.25-100 μmol L-1 under linear uptake. All experiments were run in triplicates.

[7] = test system: OATP1B1/1B3; experiment: Simcyp PBPK modeling of OATP1Bs-mediated drug-drug interaction; parameters: species or system human; conditions: Simcyp input parameter
Description: PBPK modeling was conducted using the Simcyp™ in silico bottom-up PBPK modeling.
Simcyp™ software Version 17.0.0 was used. Simcyp™ parameters are shown below in Table 3.

O=[P@]1(S)OC[C@H]2O[C@@H]3[C@H](F)[C@@H]2O[P@](=O)(S)OC[C@H]2O[C@H]([C@H](F)[C@@H]2O1)n1cnc2c(ncnc21)NC/C=C/CNc1ncnc2c1ncn23 [Compound 1]
solubility [1]: 150 µM (≈ 112 µg/mL) | logD ([1]; read-out: measured Log D): 1.31 | pKa ([1]; read-out: measured pKa): 3.41 | % Ae, feces ([2]; 0 to 24 h): 0.4 ± 0.2% | % Ae, urine ([2]; up to 48 h, 1 mg/kg): 13.7 ± 2.8% | % Ae, bile [3]: 87.9 ± 30.5% | fold decrease of liver/plasma Kp with rifampin ([4]; male, FVB, mouse, liver and plasma, with rifampin 30 mg/kg co-dosed, wild type mice, IV, read-out: decrease of Kp (liver/plasma) in the presence of Rifampin): 5 | decrease of biliary excretion on co-dosing rifampin ([4]; mouse models of FIG. 2A-2C (wild type and OATP1Bs humanized), rifampin co-dose): 66-79% | increase of Cmax in the presence of rifampin ([4]; wild type mice, IV): about 2 fold | increase in plasma exposure in the presence of rifampin ([4]; wild-type mice, 0.5 mg/kg IV, rifampin 30 mg/kg): 5.4 fold | liver exposure (AUC) in the presence vs absence of rifampin ([4]; wild-type mice, IV, rifampin co-administered): did not change significantly; also recorded: comparable | increase in plasma concentration/exposure in the presence of rifampin [5]: 4.5 fold | substrate of OATP1B1 ([6]; HEK293 cells overexpressing human OATP1B1): responsible for hepatic uptake; also recorded: substrate | Jmax (pmol/min/million cells), OATP1B1 ([6]; Simcyp input parameter, Table 3): 8.34 pmol/min/million cells | CL R [7]: 2.000 L/h
